We go through 28 molecules from patent US20240059703A1 (AMGEN INC., priority 2021, published 2024).

Sequence of KRAS G12C (P01116 other isoform, or with tags, fused parts or gaps G12C/C118A): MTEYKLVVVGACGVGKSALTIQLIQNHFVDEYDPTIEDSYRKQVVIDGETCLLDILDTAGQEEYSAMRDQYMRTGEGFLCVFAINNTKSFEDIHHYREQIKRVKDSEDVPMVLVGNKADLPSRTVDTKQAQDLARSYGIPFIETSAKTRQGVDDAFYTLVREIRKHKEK

For one assay, the target named is KRAS G12C (Homo sapiens (Human), UniProt P01116, C118A/G12C). The assay is described as follows: 2 h coupled exchange assay. Format: biochemical. The settings on record: Avg 2 h Coupled exchange IC50, 2 h compound pre-incubation. Here is the method:
The term “2 h coupled exchange assay” or “20 h coupled exchange assay” as used herein refers to the assay described in the Section entitled “BIOLOGICAL EVALUATION.”
As to `C=CC(=O)N1CC2(CCN(c3nc4cc(-c5ccnn5C)ccc4c(-c4ccc(F)cc4)c3C)C2)C1` [Example 16-3, 1-(6-(4-(4-fluorophenyl)-3-methyl-7-(1-methyl-1H-pyrazol-5-yl)-2-quinolinyl)-2,6-diazaspiro[3.4]octan-2-yl)-2-propen-1-one], the concentration for half-maximal inhibition (IC50) (commonly the midpoint of a concentration-inhibition curve) turned out to be 519 nM. On the same count and under the same terms, in the case of `C=CC(=O)N1CC2(CCN(c3nc4c(c(-c5c(C)ccc6[nH]ncc56)c3C)COC(C)(C)C4)C2)C1` (single isomer, unassigned) [Example 14-34, (M)-1-(6-(3,7,7-trimethyl-4-(5-methyl-1H-indazol-4-yl)-7,8-dihydro-5H-pyrano[4,3-b]pyridin-2-yl)-2,6-diazaspiro[3.4]octan-2-yl)-2-propen-1-one] it was 7590 nM; in that of `C=CC(=O)N1CC2(CCN(c3nc4ccccc4c(-c4c(C)c(Cl)cc5cnn(C)c45)c3C#N)C2)C1` [Example 14-90, 4-(5-chloro-1,6-dimethyl-1H-indazol-7-yl)-2-(2-(2-propenoyl)-2,6-diazaspiro[3.4]octan-6-yl)-3-quinolinecarbonitrile], 148 nM; in that of `C=CC(=O)N1CC2(CCN(c3nc4c(c(-c5[nH]c(=O)c(Br)c6ccccc56)c3C#N)CCC(C)(C)C4)C2)C1` [Example 33-1, 4-(4-bromo-3-oxo-2,3-dihydro-1-isoquinolinyl)-7,7-dimethyl-2-(2-(2-propenoyl)-2,6-diazaspiro[3.4]octan-6-yl)-5,6,7,8-tetrahydro-3-quinolinecarbonitrile], 619 nM. The same measure, in the same setting: the result for `C=CC(=O)N1CC2(CCN(c3nc4c(c(-c5c(C)c(Cl)cc6cn[nH]c56)c3F)COC(C)(C)C4)C2)C1` [Example 14-85] reads 56 nM; that for `C=CC(=O)N1CC2(CCN(c3nc4c(c(-c5cccc6c5cnn6C)c3C#N)C[C@H]3C[C@@H]4C3(C)C)C2)C1` [Example 14-24, (1R,9R)-10,10-dimethyl-6-(1-methyl-1H-indazol-4-yl)-4-(2-(2-propenoyl)-2,6-diazaspiro[3.4]octan-6-yl)-3-azatricyclo[7.1.1.0^2,7]undeca-2,4,6-triene-5-carbonitrile], 506 nM; that for `C=CC(=O)N1CC2(CCN(c3nc4cc(-n5ccnc5C)ccc4c(-c4ccccc4Cl)c3C)[C@H]2C)C1` (single isomer, unassigned) [Example 15-6], 3580 nM.

The assay is the same for the next values; noted with them: Avg 2 h Coupled exchange IC50, 2 h compound pre-incubation, SOS-mediated nucleotide exchange.
`C=CC(=O)N1CC2(CCN(c3nc4c(c(-c5c(F)cccc5[C@@H](C)O)c3C#N)C[C@H]3C[C@@H]4C3(C)C)C2)C1` (single isomer, unassigned) [Example 12-37]: the IC50 was 1440 nM. In other words, the single-digit micromolar range. Still for that read-out and setting: in the case of `C=CC(=O)N1CC2(CCN(c3nc4c(c(-c5cc(O)c(F)c6ccccc56)c3C#N)CC[C@H]3C[C@@H]43)C2)C1` (single isomer, unassigned) [Example 13-75] it was 17000 nM; in that of `C=CC(=O)N1CC2(CCN(c3nc4c(c(-c5cc(O)cc6cccnc56)c3C#N)C[C@H]3C[C@@H]4C3(C)C)C2)C1` (single isomer, unassigned) [Example 2-44], 131000 nM; in that of `C=CC(=O)N1CC2(CCN(c3nc4c(c(-c5c(C)ccc6[nH]ncc56)c3C#N)[C@H]3CC[C@@H]4C3)C2)C1` (single isomer, unassigned) [Example 14-5], 129 nM. On the same count and under the same terms, the result for `C=CC(=O)N1CC2(CCN(c3nc4c(c(-c5cccc6cc(C(F)(F)F)[nH]c56)c3C#N)C[C@H]3C[C@@H]4C3(C)C)C2)C1` [Example 12-27, (1R,9R)-10,10-dimethyl-4-(2-(2-propenoyl)-2,6-diazaspiro[3.4]octan-6-yl)-6-(2-(trifluoromethyl)-1H-indol-7-yl)-3-azatricyclo[7.1.1.0^2,7] undeca-2,4,6-triene-5-carbonitrile] reads 476 nM.

Turning to `C=CC(=O)N1CC2(CCN(c3nc4c(c(-c5cc(S(N)(=O)=O)ccc5C)c3C#N)CCC(C)(C)C4)C2)C1` [Example 2-106, 3-(3-cyano-7,7-dimethyl-2-(2-(2-propenoyl)-2,6-diazaspiro[3.4]octan-6-yl)-5,6,7,8-tetrahydro-4-quinolinyl)-4-methylbenzenesulfonamide], the 50% inhibitory concentration (IC50) turned out to be 288 nM. This IC50 is about 1.7-fold lower than that of the molecule before.

Turning to `C=CC(=O)N1CC2(CCN(c3nc4c(c(-c5c(F)ccc6cc[nH]c56)c3C#N)C[C@H]3C[C@@H]4C3(C)C)C2)C1` [Example 12-15, (1R,9R)-6-(6-fluoro-1H-indol-7-yl)-10,10-dimethyl-4-(2-(2-propenoyl)-2,6-diazaspiro[3.4]octan-6-yl)-3-azatricyclo[7.1.1.0^2,7] undeca-2,4,6-triene-5-carbonitrile], the IC50 turned out to be 464 nM. Still for that read-out and setting: in the case of `C=CC(=O)N1CC2(CCN(c3nc4c(c(-c5cccc6cc(O)ccc56)c3C)CCC(C)(C)C4)C2)C1` (single isomer, unassigned) [Example 2-14, (M)-1-(6-(4-(6-hydroxy-1-naphthalenyl)-3,7,7-trimethyl-5,6,7,8-tetrahydro-2-quinolinyl)-2,6-diazaspiro[3.4]ctan-2-yl)-2-opropen-1-one] it was 2900 nM. Same read-out and setting: the result for `CN(C)C/C=C/C(=O)N1CC2(CCN(c3nc4c(c(-c5cc(O)cc6ccccc56)c3C#N)CC[C@H]3C[C@@H]43)C2)C1` (single isomer, unassigned) [Example 13-88] reads 143 nM; that for `C=CC(=O)N1CC2(CCN(c3nc4c(c(-c5cc(O)ccc5C)c3Cl)COC(C)(C)C4)C2)C1` (single isomer, unassigned) [Example 2-80, (M)-1-(6-(3-chloro-4-(5-hydroxy-2-methylphenyl)-7,7-dimethyl-7,8-dihydro-5H-pyrano[4,3-b]pyridin-2-yl)-2,6-diazaspiro[3.4]octan-2-yl)-2-propen-1-one], 20100 nM. Molecule `C=CC(=O)N1CC2(CCN(c3nc4c(c(-c5c(C)ccc6[nH]ncc56)c3C)CCC(C)(C)C4)C2)C1` (single isomer, unassigned) [Example 2-12, (M)-1-(6-(3,7,7-trimethyl-4-(5-methyl-1H-indazol-4-yl)-5,6,7,8-tetrahydro-2-quinolinyl)-2,6-diazaspiro[3.4]octan-2-yl)-2-propen-1-one] returned an IC50 of 1110 nM. On the same count and under the same terms, in the case of `Cc1ccc2[nH]ncc2c1-c1c(C#N)c(N2CCC3(CN(C(=O)/C=C/CF)C3)C2)nc2c1CCC(C)(C)C2` [Example 13-6, 2-(2-((2E)-4-fluoro-2-butenoyl)-2,6-diazaspiro[3.4]octan-6-yl)-7,7-dimethyl-4-(5-methyl-1H-indazol-4-yl)-5,6,7,8-tetrahydro-3-quinolinecarbonitrile] it was 169 nM; in that of `C=CC(=O)N1CC2(CCN(c3nc4ccccc4c(-c4c(C)ccc5[nH]ncc45)c3C)C2)C1` (single isomer, unassigned) [Example 2-56, (M)-1-(6-(3-methyl-4-(5-methyl-1H-indazol-4-yl)-2-quinolinyl)-2,6-diazaspiro[3.4]octan-2-yl)-2-propen-1-one], 43600 nM; in that of `C=CC(=O)N1CC2(CCN(c3cc4c(c(-c5c(C)ccc6[nH]ncc56)c3C#N)COCC4)C2)C1` (single isomer, unassigned) [Example 2-99, (M)-8-(5-methyl-1H-indazol-4-yl)-6-(2-(2-propenoyl)-2,6-diazaspiro[3.4]octan-6-yl)-3,4-dihydro-1H-2-benzopyran-7-carbonitrile], 4390 nM.

Molecule `C=CC(=O)N1CC2(CCN(c3nc4c(c(-c5c(C)ccc6cnn(C)c56)c3Cl)COC(C)(C)C4)C2)C1` (single isomer, unassigned) [Example 2-88, (P)-1-(6-(3-chloro-4-(1,6-dimethyl-1H-indazol-7-yl)-7,7-dimethyl-7,8-dihydro-5H-pyrano[4,3-b]pyridin-2-yl)-2,6-diazaspiro[3.4]octan-2-yl)-2-propen-1-one] displayed an IC50 of 4730 nM.

Take `CN(C)C/C=C/C(=O)N1CC2(CCN(c3nc4c(c(-c5cc(O)cc6ccccc56)c3C#N)CCC3CC43)C2)C1` [Example 13-85, (6aR,7aS)-2-(2-((2E)-4-(dimethylamino)-2-butenoyl)-2,6-diazaspiro[3.4]octan-6-yl)-4-(3-hydroxy-1-naphthalenyl)-6,6a,7,7a-tetrahydro-5H-cyclopropa[h]quinoline-3-carbontirile|(6aS,7aR)-2-(2-((2E)-4-(dimethylamino)-2-butenoyl)-2,6-diazaspiro[3.4]octan-6-yl)-4-(3-hydroxy-1-naphthalenyl)-6,6a,7,7a-tetrahydro-5H-cyclopropa[h]quinoline-3-carbonitrile]: inhibition was half-maximal at 316 nM (IC50). The molecule `C=CC(=O)N1CC2(CCN(c3nc4c(c(-c5c(Cl)ccc6ccn(C)c56)c3C#N)COC(C)(C)C4)C2)C1` [Example 12-14, 4-(6-chloro-1-methyl-1H-indol-7-yl)-7,7-dimethyl-2-(2-(2-propenoyl)-2,6-diazaspiro[3.4]octan-6-yl)-7,8-dihydro-5H-pyrano[4,3-b]pyridine-3-carbonitrile] came in with a 50% inhibitory concentration (IC50) of 246 nM. Same read-out and setting: in the case of `C=CC(=O)N1CC2(CCN(c3nc4c(c(-c5cc(O)ccc5C)c3C#N)[C@H]3CC[C@@H]4C3)C2)C1` (single isomer, unassigned) [Example 14-13] it was 2840 nM; in that of `C=CC(=O)N1CC2(CCN(c3nc4c(c(-c5cc(Cl)cc6ccn(C)c56)c3C#N)COC(C)(C)C4)C2)C1` [Example 12-8, 4-(5-chloro-1-methyl-1H-indol-7-yl)-7,7-dimethyl-2-(2-(2-propenoyl)-2,6-diazaspiro[3.4]octan-6-yl)-7,8-dihydro-5H-pyrano[4,3-b]pyridine-3-carbonitrile], 399 nM; in that of `C=CC(=O)N1CC2(CCN(c3nc4c(c(-c5c(C)ccc6cnn(C)c56)c3C#N)CC[C@@H]3C[C@H]43)C2)C1` (single isomer, unassigned) [Example 13-134, (6a,7a)-4-(1,6-dimethyl-1H-indazol-7-yl)-2-(2-(2-propenoyl)-2,6-diazaspiro[3.4]octan-6-yl)-6,6a,7,7a-tetrahydro-5H-cyclopropa[h]quinoline-3-carbonitrile], 39300 nM. Same read-out and setting: the result for `C=CC(=O)N1CC2(CCN(c3nc4c(c(-c5c(C)ccc6[nH]ncc56)c3C#N)C[C@H]3C[C@@H]4C3(C)C)C2)C1` (single isomer, unassigned) [Example 13-114] reads 1380 nM.
